Assays:
[1] = target: T1, human chemokine receptor 2 isoform B (Homo sapiens, UniProt P41597); assay: Calcium mobilization assay (FLIPR, CHOK1-CCR2B-A5 cells, 20 nM MCP-1); type: cell-based; conditions: Ca mobilisation assay, CCR2, antagonist activity vs 20 nM MCP-1
T1 construct: host or cells: CHOK1-CCR2B-A5 (CHO-K1)
T1 sequence (P41597 1-360 isoform P41597-2): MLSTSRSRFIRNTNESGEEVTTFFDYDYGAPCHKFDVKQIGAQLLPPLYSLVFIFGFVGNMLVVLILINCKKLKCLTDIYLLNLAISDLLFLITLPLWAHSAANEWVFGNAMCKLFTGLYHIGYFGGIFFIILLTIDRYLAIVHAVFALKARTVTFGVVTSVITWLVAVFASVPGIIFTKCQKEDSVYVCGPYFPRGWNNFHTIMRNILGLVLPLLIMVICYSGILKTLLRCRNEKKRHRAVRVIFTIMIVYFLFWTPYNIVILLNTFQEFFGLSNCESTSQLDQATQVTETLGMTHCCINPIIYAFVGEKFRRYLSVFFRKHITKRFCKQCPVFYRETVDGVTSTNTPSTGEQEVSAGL
How it was run: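 Antagonism read as IC50 against 20 nM MCP-1-evoked calcium rise (peak minus baseline Fluo-4 signal, FLIPR) in CCR2B-overexpressing CHO-K1 cells. Compounds were preincubated 20-30 min at 30 °C, with agonist activity recorded for 80 s on addition.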

CCR2 = target: T2, CCR2 (Homo sapiens, UniProt P41597); assay: Chemotaxis assay (THP1-4x cells, migration towards 10 nM MCP-1); type: cell-based; conditions: inhibition of specific migration towards MCP-1
T2 construct: endogenous in cells; host or cells: THP1-4x cells
T2 sequence (P41597 1-360 isoform P41597-2): T1 sequence (P41597 1-360 isoform P41597-2)
Experimental: The chemotaxis assay was performed with THP1-4x cells (Mirzadegan et al. 2000, The Journal of Biological Chemistry 275, 33, 25562-25571) similar as described earlier (Kruszynski et al. 2005, Journal of Peptide Science, in press.).
THP1-4x were cultured in RPMI1640, 2 mM L-glutamine, 0.15% Na-bicarbonat, 0.25% D-glucose, 10 mM Hepes, […] Na-pyruvate, […] β-mercaptoethanol, 10% FBS. Isolated cells were labelled in culture medium with 2.5 μg/ml calcein-AM (Molecular Probes) for 60 minutes at 37° C. Excess calcein was removed and cells were washed in D-PBS^++, 2% FBS.
Cells (1×10^5) with or without various concentrations of test compounds were loaded on the top of 8-μm polycarbonate filter in a 96-well-modified Boyden chamber (NeuroProbe). Beneath the filter 10 nM MCP-1 (R&D Systems; Roche) with or without test compounds or D-PBS^++, 2% FBS was placed in the corresponding well. The closed chambers were incubated for 1 hour at 37° C., 5% CO2. Remaining cells in the top compartment were wiped off and migrated cells were measured as fluorescence in the bottom compartment in a FLUOstar (Galaxy BMG) at 485 nm excitation and 530 nm emission. Specific migration is defined as total migration towards MCP-1 minus the background migration towards D-PBS^++, 2% FBS. The ability of test compounds to antagonize CCR2-chemotaxis is reported as concentration required to inhibit 50% of specific migration (IC50) towards MCP-1.

Row | IC50 [1] [nM] | IC50 (CCR2) [nM] | Compound
1 | 204 | 71 | O=C(/C=C/c1ccc(Cl)c(Cl)c1)N1CCC(=O)N(CCCN2CCCC(O)C2)CC1 (racemic) [Example 81, (+/−)-1-[(E)-3-(3,4-Dichloro-phenyl)-acryloyl]-4-[3-(3-hydroxy-piperidin-1-yl)-propyl]-[1,4]diazepan-5-one]
2 | 64 | 13 | O=C1NC(=O)C2(CCN(CCCN3CCN(C(=O)/C=C/c4ccc(Cl)c(Cl)c4)CCC3=O)CC2)N1 [Example 48, 8-(3-{4-[(E)-3-(3,4-Dichloro-phenyl)-acryloyl]-7-oxo-[1,4]diazepan-1-yl}-propyl)-1,3,8-triaza-spiro[4.5]decane-2,4-dione]
3 | 14 | 77 | O=C(/C=C/c1ccc(Cl)c(Cl)c1)N1CCC(=O)N(CCCN2CCC(O)(c3ccccc3)CC2)CC1 [Example 59, 1-[(E)-3-(3,4-Dichloro-phenyl)-acryloyl]-4-[3-(4-hydroxy-4-phenyl-piperidin-1-yl)-propyl]-[1,4]diazepan-5-one]
4 | 232 | 101 | O=C(/C=C/c1ccc(Cl)c(Cl)c1)N1CCC(=O)N(CCN2CCCC2)CC1 [Example 160, 1-[(E)-3-(3,4-Dichloro-phenyl)-acryloyl]-4-(2-pyrrolidin-1-yl-ethyl)-[1,4]diazepan-5-one]
5 | 85 | – | COC(=O)N(C)C1CCN(CCCCN2CCN(C(=O)/C=C/c3ccc(Cl)c(Cl)c3)CCC2=O)CC1 [Example 442]
6 | 32 | – | COCC1CCN(CCCCN2CCN(C(=O)/C=C/c3ccc(Cl)c(Cl)c3)CCC2=O)CC1 [Example 444, 1-[(E)-3-(3,4-Dichloro-phenyl)-acryloyl]-4-[4-(4-methoxymethyl-3-piperidin-1-yl)-butyl]-[1,4]diazepan-5-one]
7 | 33 | – | CC(=O)NC1CCN(CCCCN2CCN(C(=O)/C=C/c3ccc(Cl)c(Cl)c3)CCC2=O)CC1 [Example 453]
8 | 832 | – | CN(CCO)CCCCN1CCN(C(=O)/C=C/c2ccc(Cl)c(Cl)c2)CCC1=O [Example 460]
9 | 614 | – | CCN(CCO)CCCCN1CCN(C(=O)/C=C/c2ccc(Cl)c(Cl)c2)CCC1=O [Example 461]
10 | 376 | – | CC(C)CN1CCN(CCCCN2CCN(C(=O)/C=C/c3ccc(Cl)c(Cl)c3)CCC2=O)CC1 [Example 465]
11 | 51 | – | CC1(CO)CCN(CCCCN2CCN(C(=O)C=Cc3ccc(Cl)c(Cl)c3)CCC2=O)CC1O (centres unmarked) [Example 473]
12 | 106 | – | C[C@@]1(CO)CCN(CCCCN2CCN(C(=O)/C=C/c3ccc(Cl)c(Cl)c3)CCC2=O)C[C@H]1O [Example 474]
13 | 15 | – | O=C(/C=C/c1ccc(Cl)c(F)c1)N1CCC(=O)N(CCCN2CCC3(CC3)C(O)C2)CC1 (stereo not drawn) [Example 493, 1-[(E)-3-(4-Chloro-3-fluoro-phenyl)-acryloyl]-4-[3-((+)-4-hydroxy-6-aza-spiro[2.5]oct-6-yl)-propyl]-[1,4]diazepan-5-one]
14 | 6 | – | O=C(/C=C/c1ccc(Cl)c(F)c1)N1CCC(=O)N(CCCN2CCC3(CC3)C(O)C2)CC1 (stereo not drawn) [Example 494, 1-[(E)-3-(4-Chloro-3-fluoro-phenyl)-acryloyl]-4-[3-((−)-4-hydroxy-6-aza-spiro[2.5]oct-6-yl)-propyl]-[1,4]diazepan-5-one]
15 | 19 | – | O=C(/C=C/c1ccc(F)c(F)c1)N1CCC(=O)N(CCCN2CCC3(CC3)C(O)C2)CC1 (centres unmarked) [Example 495]
16 | 7 | – | O=C(/C=C/c1cccc(Cl)c1)N1CCC(=O)N(CCCN2CCC3(CC3)C(O)C2)CC1 (stereo not drawn) [Example 496, 1-[(E)-3-(3-Chloro-phenyl)-acryloyl]-4-[3-((-)-4-hydroxy-6-aza-spiro[2.5]oct-6-yl)-propyl]-[1,4]diazepan-5-one]
17 | 26 | – | O=C(/C=C/c1cnc(Cl)c(Cl)c1)N1CCC(=O)N(CCCN2CCC3(CC3)C(O)C2)CC1 (stereo not drawn) [Example 497, 1-[(E)-3-(5,6-Dichloro-pyridin-3-yl)-acryloyl]-4-[3-((-)-4-hydroxy-6-aza-spiro[2.5]oct-6-yl)-propyl]-[1,4]diazepan-5-one]
18 | 11 | – | O=C(/C=C/c1ccc(Cl)cc1)N1CCC(=O)N(CCCN2CCC3(CC3)C(O)C2)CC1 (centres unmarked) [Example 498]
19 | 451 | – | CC1(C)CCN(C[C@H](O)CCN2CCN(C(=O)/C=C/c3ccc(F)c(Cl)c3)CCC2=O)CC1O (some centres unmarked) [Example 500]
20 | 155 | – | CC1(C)CCN(C[C@H](O)CCN2CCN(C(=O)/C=C/c3ccc(Cl)c(Cl)c3)CCC2=O)CC1O (some centres unmarked) [Example 501]
21 | 253 | – | C[C@@H]1C[C@H](O)CN(C[C@H](O)CCN2CCN(C(=O)/C=C/c3ccc(F)c(Cl)c3)CCC2=O)C1 [Example 502]
22 | 51 | – | C[C@@H]1C[C@H](O)CN(C[C@H](O)CCN2CCN(C(=O)/C=C/c3ccc(Cl)c(Cl)c3)CCC2=O)C1 [Example 503]
23 | 348 | – | (rac)-N-[1-(4-{4-[(E)-3-(3,4-Dichloro-phenyl)-acryloyl]-7-oxo-[1,4]diazepan-1-yl}-butyl)-piperidin-3-yl]-acetamide [Example 463]

Row | Compound | IC50 [1] [nM] | IC50 (CCR2) [nM]
24 | (rac)-1-[(E)-3-(3,4-Dichloro-phenyl)-acryloyl]-4-[2-hydroxy-3-(2-hydroxy-2-hydroxymethyl-piperidin-1-yl)-propyl]-[1,4]diazepan-5-one [Example 307] | 437 | –
25 | (rac)-1-[(E)-3-(3,4-Dichloro-phenyl)-acryloyl]-4-[4-(3-hydroxy-5-methoxymethyl-piperidin-1-yl)-butyl]-[1,4]diazepan-5-one [Example 490] | 26 | –

From patent US7632829B2, “Diazepan derivatives” (Hoffmann-La Roche Inc., priority 2006, dated 2009)
